Source: patent publication EP0390515A1, “Novel adenine derivatives and their use as agents for increasing crop yields” (MITSUBISHI GAS CHEMICAL COMPANY, INC., priority 1989, dated 1990)
Values after ≈ are worked out from the molar mass of the structure shown. Read-outs that look alike come from different tables or passages of the source.

Key:
[1] = tested on: wheat shoots; assay: Absorption from the base of wheat shoots and translocation (senescence retardation of leaf sections); format: cell-based, wheat [var.: Yukichabo (Triticum astivum)]; details: for The senescence retardation (%): 10 mg/l taken up from shoot base for 18 hours
Protocol: Wheat seedlings were grown to a height of 14-15 cm in the same manner as in the above Example 8 test (1) and the shoot was cut off at the base. These sections were used for the test.
A solution (10 ml) containing 10 mg/l of the candidate compound or benzyladenine was poured into a test tube 2.5 cm in diameter and five of the wheat shoots as one group were inserted in one test tube containing the candidate solution and left at 25°C for 18 hours under irradiation with light of 1500 Lx. Thereafter, each of the shoots was cut at 5-6 cm, 8-9 cm and 11-12 cm from the above cut end and five of the respective sections as one group were floated on the surface of distilled water (2 ml) in a glass tubular bottle 32 mm in inner diameter with the upper surface of the leaves being uppermost. These were left at 25°C for 3 days in the dark and thereafter, the leaf sections were put in a test tube containing 10 ml of 80% ethanol. This test tube was immersed in a water bath at 80°C for 20 minutes to extract chlorophyll. After cooling, 80% ethanol was added to make up to 10 ml and absorbance of the solution at 665 nm was measured. In the same manner as in the above Example 8 test (1), senescence retardation was obtained.

[2] = tested on: Rice seeds (var.: Nankin No. 11) leaf section; assay: Assay of cytokinin activity by measurement of chlorophyll content (senescence retardation of rice leaf sections); format: cell-based, Rice (var.: Nankin No. 11); details: dark, 30°C, 3 days
Protocol: Rice seeds (var.: Nankin No. 11) were sown in soil mixed with fertilizer in a seed box and raised for about one month in a greenhouse (25°C in the daytime and 15°C in the night).
A leaf section 1 cm long was cut off from the center of the fourth leaf of the seedlings at the sixth leaf stage. Five leaf sections as one group which had been cut off were floated on the surface of an aqueous solution (2 ml) of the candidate compound or benzyl adenine at a given concentration contained in a glass tubular bottle of 32 mm in inner diameter. This was left to stand in the dark at 30°C for 3 days. The leaf sections were taken out and put in a test tube containing 10 ml of 80% ethanol and the glass tube was immersed in a water bath of 80°C for 20 minutes to extract chlorophyll. After cooling, 80% ethanol was added to make up to 10 ml and absorbance at 665 nm was measured. For the untreated group, water was used in place of the candidate solution in all examples.
Senescence retardation was determined according to the degree of chlorophyll retention, that is, calculated using the following formula (in all examples). [formula] • (A) : Absorbance of treated group after 3 days • (B) : Absorbance of untreated group after 3 days • (C) : Absorbance of leaves before treatment.

[3] = tested on: glycine (soybean) hypocotyl section; assay: Assay for cytokinin activity according to glycine (soybean) hypocotyl section growth test (callus weight); format: cell-based, Soybean (var.: Enrei); details: Miller's medium with 2,4-D, dark, 30°C, about one month
Protocol: Soybean seeds (var.: Enrei) were disinfected with antiformin containing 0.7% effective chlorine for 4 minutes and washed thrice with sterilized water.
Agar (15 ml, 1.6%) was put in a test tube 2.5 cm in diameter. A groove was cut by forceps on the surface of the agar and two soybean seeds treated as above were placed in this groove and kept in the dark at 30°C for 5 days.
In a glass tubular bottle 26 mm in inner diameter was put Miller's medium, to which a given concentration of the candidate compound, benzyladenine or zeatin and […] of 2,4-D were added. The central portion of hypocotyl budding out from the above seeds was cut off to give a section 1 mm thick. Four of the sections as one group were transplanted to the Miller's medium. This was placed in the dark at 30°C for about one month and then the weight of callus formed was measured. For untreated group, the Miller's medium containing 9 mg/l of 2,4-D was used.

[4] = Water solubility; format: physicochemical
Protocol: Water solubility of adenine derivatives of the present invention and representative known cytokinin substances was measured and the results are shown in Table 7. […]

[5] = tested on: leaf section of wheat; assay: Activity on leaf section of wheat (senescence retardation, chlorophyll retention); format: cell-based, wheat [var.: Yukichabo (Triticum astivum)]; details: wheat leaf sections, 25°C, 4 days, dark
Protocol: Seeds of wheat [var.: Yukichabo (Triticum astivum)] were sown in vermiculite packed in a seed-bed box and were sprouted by keeping them at 28°C for 2 days in the dark. The seedlings wera grown at 25°C for 5 days under irradiation with light of 1500 Lx. When they grew to a length of 12 - 13 cm, a portion having a length of 1 cm was cut off from the leaf in the region 2 - 5 cm from the tip of the first true leaf. Five of the leaf sections as one group were floated with the upper surface of the leaf being uppermost on the surface of aqueous solution (2 ml) of a given concentration of the candidate compound or benzyladenine contained in a glass tubular bottle 32 mm in inner diameter. These were placed at 25°C for 4 days in the dark and thereafter, these leaf sections were put in a test tube containing 10 ml of 80% ethanol and this test tube was immersed in a water bath at 80°C for 20 minutes to extract chlorophyll. After cooling, 80% ethanol was added to make up to 10 ml and absorbance at 665 nm was measured. Senescence retardation was determined according to the degree of retention of chlorophyll. For the untreated group, water was used in place of the aqueous solution of candidate compound.

[6] = tested on: pig weed (Amaranthus caudatus); assay: Assay of cytokinin activity to promote synthesis of betacyanin by pig weed cotyledon sections; format: cell-based; details: 27°C, 20 hours, dark
Protocol: Two sheets of filter paper were put double in a plastic container (19 x 28 cm) and were wetted with 60 ml of distilled water. Seeds of pig weed were sown on the filter papers and were germinated by keeping them in the dark at 27°C for 3 days. Seedlings of uniform size were chosen and were cut at the upper part of the hypocotyl and the seed coats were removed. This cotyledon with hypocotyl of 3-4 mm in length was used for assay.
Two sheets of filter paper were put double in a glass tubular bottle 32 mm in inner diameter and 1 ml of 0.0065M potassium phosphate buffer solution (pH: 6.3) containing a given concentration of the candidate compound, benzyladenine or zeatin and 0.5 g/l of tyrosine was added therein and ten of the above cotyledon sections were arranged therein and kept at 27°C for 20 hours in the dark. These ten cotyledon sections were put in a test tube containing 3 ml of distilled water and betacyanin was extracted by repeating thrice freezing and thawing. Absorbance of the solution was measured and the amount of the dye was calculated by the difference between the absorbance at 542 nm and at 620 nm. For the untreated group, 0.0065M potassium phosphate buffer solution (pH: 6.3) containing 0.5 g/l of tyrosine was used.

[7] = region of leaf section 5-6 (cm) from cut end
[8] = region of leaf section 8-9 (cm) from cut end
[9] = region of leaf section 11-12 cm from cut end

| SMILES | The senescence retardation (%) [1, 7] [%] | The senescence retardation (%) [1, 8] [%] | The senescence retardation (%) [1, 9] [%] | The senescence retardation (%) ([2]; 0.001 mg/l) | The senescence retardation (%) ([2]; 0.01 mg/l) | The senescence retardation (%) ([2]; 0.1 mg/l) | The senescence retardation (%) ([2]; 1.0 mg/l) | The weight of soybean callus formed ([3]; 0.001 mg/l) [mg] | The weight of soybean callus formed ([3]; 0.01 mg/l) [mg] | The weight of soybean callus formed ([3]; 0.1 mg/l) [mg] | The senescence retardation (%) ([5]; 0.0001 mg/l) | The senescence retardation (%) ([5]; 0.001 mg/l) | The senescence retardation (%) ([5]; 0.01 mg/l) | The senescence retardation (%) ([5]; 0.1 mg/l) | The senescence retardation (%) ([5]; 1.0 mg/l) | The senescence retardation (%) ([5]; 10 mg/l) | The amount of betacyanin produced (difference between absorbance at 542 nm and 620 nm) ([6]; 0.001 mg/l) | The amount of betacyanin produced (difference between absorbance at 542 nm and 620 nm) ([6]; 0.01 mg/l) | The amount of betacyanin produced (difference between absorbance at 542 nm and 620 nm) ([6]; 0.1 mg/l) | The amount of betacyanin produced (difference between absorbance at 542 nm and 620 nm) ([6]; 1.0 mg/l) | other results |
| --- | --- | --- | --- | --- | --- | --- | --- | --- | --- | --- | --- | --- | --- | --- | --- | --- | --- | --- | --- | --- | --- |
| CON(C)CCNc1ncnc2nc[nH]c12 [MAED, N⁶-[2-(N-methoxy-N-methylamino)ethyl]adenine] | 37 | 34 | 20 | 14 | 60 | 100 | 95 | 97 | 182 | 654 | 4 | 14 | 43 | 56 | 58 | 76 | 0.040 | 0.058 | 0.121 | 0.214 | senescence retardation compared with benzyladenine (absorbability and translocation) ([1]; all regions of the first true leaf of wheat, result in words): more pronounced effect of senescence retardation than benzyladenine in all regions; The weight of soybean callus formed ([3]; 1.0 mg/l): 823 mg; The weight of soybean callus formed ([3]; 10 mg/l): 705 mg; solubility ([4]; 20°C, read-out: Solubility (g/100 g H₂O) (20°C)): 99 mg/mL (≈ 445 mM) |
| c1ccc(CNc2ncnc3nc[nH]c23)cc1 [Benzyladenine, 6-benzylaminopurine, reference compound] | 17 | 21 | 14 | 17 | 64 | 93 | 93 | 76 | 836 | 674 | 7 | 15 | 50 | 55 | 74 | 75 | 0.038 | 0.076 | 0.192 | 0.260 | solubility [4]: 0.03 mg/mL (≈ 0.133 mM) |
